# Where a name gives a salt, the structure may show the parent alone. Read-outs that look alike come from different tables or passages of the source.
# Tested on: male Std:ddY mice
# Test: Phenyl-1,4-benzoquinone-induced writhing test
# Format: in vivo
# Conditions: for inhibition in vivo at 1 mg/kg / ED50 / inhibition in vivo at 10 mg/kg: Mus musculus; for inhibition in vivo at 1 mg/kg / inhibition in vivo at 10 mg/kg: 1 h, 60 minutes before PBQ, read-out: Inhibitory percentage (%); for inhibition in vivo at 1 mg/kg: subcutaneously administered at a dose of 1 mg/kg; for ED50 / ED50 (mg/kg sc) / ED50 (mg/kg po): writhing inhibition, logit analysis; for inhibition in vivo at 10 mg/kg: orally administered at a dose of 10 mg/kg
# Description: Phenyl-1,4-benzoquinone-induced Writhing Test Referring to the method disclosed in Proc. Soc. exp. Biol. […] For oral administration, a test compound was suspended in 0.5% tragacanth solution. […] In the control group, a physiological saline solution containing 10% Tween 80 and 10% ethanol was administered in the case of subcutaneous administration, or a 0.5% tragacanth solution was administered in the case of oral administration. The number of writhing movements in the test compound-treated group was compared with that in the control group, and the writhing inhibitory percentage was calculated therefrom and considered as an analgesic effect. Writhing inhibitory percentage (%)=[(A−B)/A]×100 In the above equation, A means the number of writhing movements in the control group, and B means the number of writhing movements in the test compound-treated group. From the writhing inhibitory percentage of the test compound, ED50 (mg/kg) was calculated by logit analysis.
# [1] = sc, subcutaneous administration, read-out: ED50 (mg/kg sc)
# [2] = po, oral administration, read-out: ED50 (mg/kg po)
SMILES,inhibition in vivo at 1 mg/kg (sc) [%],ED50 [1] [mg/kg],further results
"CS(=O)(=O)Nc1cc(CC(=O)Nc2cccc(C3CCCCC3)c2)ccc1O [Ex. 34, N-(3-cyclohexylphenyl)-4-hydroxy-3-(methanesulfonylamino)phenylacetamide]",41.5,0.48,
"COc1cc(CC(=O)Nc2cccc(C#Cc3ccccc3C(F)(F)F)c2)ccc1O [Ex. 37, 4-hydroxy-3-methoxy-N-[3-[2-(2-trifluoromethylphenyl)-ethynyl]phenyl]phenylacetamide]",59.6,0.46,
"COc1cc(CC(=O)Nc2cccc(C3CCCCCC3)c2)ccc1OCCN [Ex. 58, 4-(2-aminoethoxy)-N-(3-cycloheptylphenyl)-3-methoxyphenylacetamide hydrochloride]",54.4,,
"COc1cc(CC(=O)Nc2ccccc2Cc2ccccc2)ccc1O [Ex. 97, N-(2-benzylphenyl)-4-hydroxy-3-methoxyphenylacetamide]",54.9,,
COc1cc(CC(=O)Nc2ccc3c(c2)C(=O)/C(=C/C(C)C)CC3)ccc1O [Ex. 250],55,,
"COc1cc(CC(=O)Nc2ccc3c(c2)C(=O)C(CC(C)C)CC3)ccc1O (centres unmarked) [Ex. 251, 4-hydroxy-3-methoxy-N-[1-oxo-2-(2-methylpropyl)-1,2,3,4-tetrahydronaphthalen-7-yl]phenylacetamide]",42.7,,
"COc1cc(CC(=O)Nc2cccc(C3CCCCC3)c2)ccc1O [Example 1, N-(3-cyclohexylphenyl)-4-hydroxy-3-methoxyphenylacetamide]",100,,"ED50 (mg/kg sc) (subcutaneous administration, listed as Ex. 1): 0.014 mg/kg"
"COc1cc(CC(=O)Nc2cccc(C3C4CC5CC(C4)CC3C5)c2)ccc1O (centres unmarked) [Example 3, N-[3-(adamantan-2-yl)phenyl]-4-hydroxy-3-methoxyphenylacetamide]",91.3,0.46,
"COc1cc(CC(=O)Nc2cccc(C3CCCC3)c2)ccc1O [Example 4, N-(3-cyclopentylphenyl)-4-hydroxy-3-methoxyphenylacetamide]",79.6,,
"COc1cc(CC(=O)Nc2cccc(CC3CCCCC3)c2)ccc1O [Example 5, N-[3-(cyclohexylmethyl)phenyl]-4-hydroxy-3-methoxyphenylacetamide]",83.5,0.57,
"COc1cc(CC(=O)Nc2cccc(C3=CCCCC3)c2)ccc1O [Example 9, N-[3-(cyclohexen-1-yl)phenyl]-4-hydroxy-3-methoxyphenylacetamide]",93.2,0.23,
"COc1cc(CC(=O)Nc2cccc(C3CCCCC3c3ccccc3)c2)ccc1O (centres unmarked) [Example 11, 4-hydroxy-3-methoxy-N-[3-(2-phenylcyclohexan-1-yl)phenyl]-phenylacetamide]",88.4,0.19,
"COc1cc(CC(=O)Nc2cccc(C3CCC(C)CC3)c2)ccc1O (centres unmarked) [Example 13, 4-hydroxy-3-methoxy-N-[3-(4-methylcyclohexan-1-yl)phenyl]-phenylacetamide]",100,≤ 0.1,"ED50 (mg/kg sc) (subcutaneous administration, listed as Ex. 13): 0.097 mg/kg"
"COc1cc(CC(=O)Nc2cccc(-c3ccccc3)c2)ccc1O [Example 35, 4-hydroxy-3-methoxy-N-(3-phenylphenyl)phenylacetamide]",89.4,0.23,
"COc1cc(CC(=O)Nc2cccc(C#Cc3ccccc3)c2)ccc1O [Example 36, 4-hydroxy-3-methoxy-N-[3-(2-phenylethynyl)phenyl]phenylacetamide]",92.3,,"ED50 (mg/kg sc) (subcutaneous administration, listed as Ex. 36): 0.046 mg/kg"
"COc1cc(CC(=O)Nc2cccc(CCc3ccccc3)c2)ccc1O [Example 54, 4-hydroxy-3-methoxy-N-[3-(2-phenylethyl)phenyl]phenylacetamide]",90.4,≤ 0.1,"ED50 (mg/kg sc) (subcutaneous administration, listed as Ex. 54): 0.081 mg/kg"
"COc1cc(CC(=O)Nc2cccc(/C=C\c3ccccc3)c2)ccc1O [Example 56, 4-hydroxy-3-methoxy-N-[3-[(Z)-2-phenylvinyl]phenyl]phenylacetamide]",82.7,0.11,

SMILES,inhibition in vivo at 1 mg/kg (sc) [%],ED50 [1] [mg/kg],further results
"COc1cc(CC(=O)Nc2cccc(-c3ccccc3)c2)ccc1OCCN.Cl [Example 63, 4-(2-aminoethoxy)-3-methoxy-N-(3-phenylphenyl)phenylacetamide]",100,,"inhibition in vivo at 10 mg/kg (po): 100%; ED50 (mg/kg po) (oral administration, listed as Ex. 63): 0.021 mg/kg; ED50 (mg/kg sc) (subcutaneous administration, listed as Ex. 63): 0.016 mg/kg"
"COc1cc(CC(=O)Nc2cccc(C3CCC(C(C)(C)C)CC3)c2)ccc1OC(C)=O (centres unmarked) [Example 69, 4-acetoxy-N-[3-(4-tert-butylcyclohexan-1-yl)phenyl]-3-methoxyphenylacetamide]",99,≤ 0.1,"inhibition in vivo at 10 mg/kg (po): 73.5%; ED50 [2]: 2.81 mg/kg; ED50 (mg/kg sc) (subcutaneous administration, listed as Ex. 69): 0.088 mg/kg"
"COc1cc(CC(=O)Nc2cccc(C3CCC(C(C)(C)C)CC3)c2)ccc1OC(=O)c1ccccc1 (centres unmarked) [Example 70, 4-benzoyloxy-N-[3-(4-tert-butylcyclohexan-1-yl)phenyl]-3-methoxyphenylacetamide]",93.2,0.16,inhibition in vivo at 10 mg/kg (po): 68.6%; ED50 [2]: 9.7 mg/kg
"COc1cc(CC(=O)Nc2cccc(C3CCC(C(C)(C)C)CC3)c2)ccc1OC(=O)C(C)(C)C (centres unmarked) [Example 71, 4-tert-butylcarbonyloxy-N-[3-(4-tert-butylcyclohexan-1-yl)-phenyl]-3-methoxyphenylacetamide]",94.2,0.16,
"COc1cc(CC(=O)Nc2cccc(C3=CCC(C(C)(C)C)CC3)c2)ccc1O (centres unmarked) [Example 80, N-[3-(4-tert-butylcyclohexen-1-yl)phenyl]-4-hydroxy-3-methoxyphenylacetamide]",100,0.37,
"COc1cc(CC(=O)Nc2cccc(C3CCC(C(F)(F)F)CC3)c2)ccc1O (centres unmarked) [Example 81, 4-hydroxy-3-methoxy-N-[3-(4-trifluoromethylcyclohexan-1-yl)-phenyl]phenylacetamide]",100,,
"COc1cc(CC(=O)Nc2cccc(C3CCCC(C)C3)c2)ccc1O (centres unmarked) [Example 83, 4-hydroxy-3-methoxy-N-[3-(3-methylcyclohexan-1-yl)phenyl]-phenylacetamide]",83,≤ 0.1,"ED50 (mg/kg sc) (subcutaneous administration, listed as Ex. 83): 0.10 mg/kg"
"COc1cc(CC(=O)Nc2cccc(C3C(C)CCCC3C)c2)ccc1O (centres unmarked) [Example 84, N-[3-(2,6-dimethylcyclohexan-1-yl)phenyl]-4-hydroxy-3-methoxyphenylacetamide]",67.7,0.45,
"COc1cc(CC(=O)Nc2cccc(C3CC(C)CC(C)C3)c2)ccc1O (centres unmarked) [Example 85, N-[3-(3,5-dimethylcyclohexan-1-yl)phenyl]-4-hydroxy-3-methoxyphenylacetamide]",76.9,0.31,
"COc1cc(CC(=O)Nc2cccc(N3CCC(C(C)(C)C)CC3)c2)ccc1O [Example 86, N-[3-(4-tert-butylpiperidin-1-yl)phenyl]-4-hydroxy-3-methoxyphenylacetamide]",78.8,0.33,
"COc1cc(CC(=O)Nc2cccc(N3CCCC(C4CCCCC4)C3)c2)ccc1O (centres unmarked) [Example 87, N-[3-(3-cyclohexylpiperidin-1-yl)phenyl]-4-hydroxy-3-methoxyphenylacetamide]",95.8,0.4,
"COc1cc(CC(=O)Nc2cccc(N3CCCC(C)C3)c2)ccc1O (centres unmarked) [Example 88, N-[3-(3-methylpiperidin-1-yl)phenyl]-4-hydroxy-3-methoxyphenylacetamide]",76.6,,
"COc1cc(CC(=O)Nc2cccc(-c3ccc(Cl)s3)c2)ccc1O [Example 100, 4-hydroxy-3-methoxy-N-[3-(2-chlorothiophen-5-yl)phenyl]-phenylacetamide]",100,,
"COc1cc(CC(=O)Nc2cccc(-c3cccn3C(=O)OC(C)(C)C)c2)ccc1O [Example 101, 4-hydroxy-3-methoxy-N-[3-(1-tert-butoxycarbonylpyrrol-2-yl)-phenyl]phenylacetamide]",100,0.23,
"COc1cc(CC(=O)Nc2cccc(CCC3CCCCC3)c2)ccc1O [Example 114, 4-hydroxy-3-methoxy-N-[3-(2-cyclohexylethyl)phenyl]phenylacetamide]",98,,
"COc1cc(CC(=O)Nc2cccc(-c3ccccc3C3CCCCC3)c2)ccc1OCCN [Example 122, 4-(2-aminoethoxy)-N-[3-(2-cyclohexylphenyl)phenyl]-3-methoxyphenylacetamide]",,,"inhibition in vivo at 10 mg/kg (po): 99%; ED50 [2]: ≤ 1 mg/kg; ED50 (mg/kg po) (oral administration, listed as Ex. 122): 0.58 mg/kg"
"COc1cc(CC(=O)Nc2cccc(-c3ccccc3F)c2)ccc1OCCN [Example 123, 4-(2-aminoethoxy)-N-[3-(2-fluorophenyl)phenyl]-3-methoxyphenylacetamide]",,,"inhibition in vivo at 10 mg/kg (po): 100%; ED50 [2]: ≤ 1 mg/kg; ED50 (mg/kg po) (oral administration, listed as Ex. 123): 0.76 mg/kg"
